Results as given in patent US8207172B2 (Bayer Intellectual Property GmbH, priority 2004, dated 2012).
Counter-ions that a name gives are not always drawn.

Assays:
[1] = system: BT474 (human breast carcinoma); assay: In vitro tumor cell proliferation assay (Cell Titer-Glo luminescent cell viability), BT474; type: cell-based; conditions: BT-474, 72 h, BT474 cells, 72 hours of drug exposure, ATP luminescence readout, read-out: IC50, anti-proliferative activity (inhibition of cell proliferation)
Procedure, shortened: (§1)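 Seeding density 2.5×10^3 cells/well; 72 h drug exposure at 37° C; endpoint CellTiter-Glo luminescence, reported as IC50.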

[2] = system: A431 cells (human epidermoid carcinoma); assay: In vitro tumor cell proliferation assay (Cell Titer-Glo luminescent cell viability), A431; type: cell-based; conditions: A-431, 72 h, 72 hours of drug exposure, ATP luminescence readout, read-out: IC50, anti-proliferative activity (inhibition of cell proliferation)
Procedure, shortened: as §1

SMILES | IC50 [1] [µM] | IC50 [2] [µM]
CN(C)[C@H]1CCN(C(=O)Cn2cc3c(n2)CCc2c-3sc3ncnc(Nc4ccc(OCc5cccc(F)c5)c(Cl)c4)c23)C1 [Example 177, N-{3-chloro-4-[(3-fluorobenzyl)oxy]phenyl}-2-{2-[(3S)-3-(dimethylamino)pyrrolidin-1-yl]-2-oxoethyl}-4,5-dihydro-2H-pyrimido[5′,4′:4,5]thieno[2,3-e]indazol-6-amine] | ≤ 1 | ≤ 5
CS(=O)(=O)OCCn1ncc2c1CCc1c-2sc2ncnc(Nc3ccc(F)c(Cl)c3)c12 [Example 89, 2-{6-[(3-chloro-4-fluorophenyl)amino]-4,5-dihydro-3H-pyrimido[5′,4′:4,5]thieno[2,3-e]indazol-3-yl}ethyl methanesulfonate] | ≤ 50 | ≤ 50
CCN1CCN(CCn2cc3c(n2)CCc2c-3sc3ncnc(Nc4ccc5c(cnn5Cc5cccc(F)c5)c4)c23)CC1 [Example 283, 2-[2-(4-ethylpiperazin-1-yl)ethyl]-N-[1-(3-fluorobenzyl)-1H-indazol-5-yl]-4,5-dihydro-2H-pyrimido[5′,4′:4,5]thieno[2,3-e]indazol-6-amine] | ≤ 1 | ≤ 5
CN1CCN(CCn2cc3c(n2)CCc2c-3sc3ncnc(Nc4ccc(N5CCOCC5)c(Cl)c4)c23)CC1 [Example 48, N-(3-chloro-4-morpholin-4-ylphenyl)-2-[2-(4-methylpiperazin-1-yl)ethyl]-4,5-dihydro-2H-pyrimido[5′,4′:4,5]thieno[2,3-e]indazol-6-amine] | ≤ 5 | ≤ 50
O=C(Cn1ncc2c1CCc1c-2sc2ncnc(Nc3ccc(OCc4cccc(F)c4)c(Cl)c3)c12)N1CCNCC1 [Example 201, N-{3-chloro-4-[(3-fluorobenzyl)oxy]phenyl}-3-(2-oxo-2-piperazin-1-ylethyl)-4,5-dihydro-3H-pyrimido[5′,4′:4,5]thieno[2,3-e]indazol-6-amine] | ≤ 1 | ≤ 5
CN(C)C1CCN(C(=O)Cn2ncc3c2CCc2c-3sc3ncnc(Nc4ccc(OCc5cccc(F)c5)c(Cl)c4)c23)C1 (centres unmarked) [Example 215, N-{3-chloro-4-[(3-fluorobenzyl)oxy]phenyl}-3-{2-[3-(dimethylamino)pyrrolidin-1-yl]-2-oxoethyl}-4,5-dihydro-3H-pyrimido[5′,4′:4,5]thieno[2,3-e]indazol-6-amine] | ≤ 1 | ≤ 5
Fc1cccc(COc2ccc(Nc3ncnc4sc5c(c34)CCc3c-5cnn3CCN3CCN(Cc4ccncc4)CC3)cc2Cl)c1 [Example 263, N-{3-chloro-4-[(3-fluorobenzyl)oxy]phenyl}-3-{2-[4-(pyridin-4-ylmethyl)piperazin-1-yl]ethyl}-4,5-dihydro-3H-pyrimido[5′,4′:4,5]thieno[2,3-e]indazol-6-amine] | ≤ 1 | ≤ 50
CCCN(CCOC)CCn1cc2c(n1)CCc1c-2sc2ncnc(Nc3ccc(F)c(Cl)c3)c12 [Example 23, N-(3-chloro-4-fluorophenyl)-2-{2-[(2-methoxyethyl)(propyl)amino]ethyl}-4,5-dihydro-2H-pyrimido[5′,4′:4,5]thieno[2,3-e]indazol-6-amine] | ≤ 5 | ≤ 5
COCCNCCn1ncc2c1CCc1c-2sc2ncnc(Nc3ccc4c(cnn4Cc4cccc(F)c4)c3)c12 [Example 297, N-[1-(3-fluorobenzyl)-1H-indazol-5-yl]-3-{2-[(2-methoxyethyl)amino]ethyl}-4,5-dihydro-3H-pyrimido[5′,4′:4,5]thieno[2,3-e]indazol-6-amine] | ≤ 1 | ≤ 5
CN(C)C[C@@H](O)Cn1ncc2c1CCc1c-2sc2ncnc(Nc3ccc(OCc4cccc(F)c4)c(Cl)c3)c12 [Example 171, (2R)-1-[6-({3-chloro-4-[(3-fluorobenzyl)oxy]phenyl}amino)-4,5-dihydro-3H-pyrimido[5′,4′:4,5]thieno[2,3-e]indazol-3-yl]-3-(dimethylamino)propan-2-ol trifluoroacetate (salt)] | ≤ 1 | ≤ 50
COC(=O)[C@@H]1CCCN1CCn1cc2c(n1)CCc1c-2sc2ncnc(Nc3ccc(F)c(Cl)c3)c12 [Example 34, methyl 1-(2-{6-[(3-chloro-4-fluorophenyl)amino]-4,5-dihydro-2H-pyrimido[5′,4′:4,5]thieno[2,3-e]indazol-2-yl}ethyl)-L-prolinate] | ≤ 5 | ≤ 5

Other lines, results leading:

IC50 [1] [µM] | IC50 [2] [µM] | SMILES
≤ 1 | ≤ 50 | CS(=O)(=O)CCNC(=O)Cn1cc2c(n1)CCc1c-2sc2ncnc(Nc3ccc(OCc4cccc(F)c4)c(Cl)c3)c12 [Example 180, 2-[6-({3-chloro-4-[(3-fluorobenzyl)oxy]phenyl}amino)-4,5-dihydro-2H-pyrimido[5′,4′:4,5]thieno[2,3-e]indazol-2-yl]-N-[2-(methylsulfonyl)ethyl]acetamide]
≤ 1 | ≤ 5 | OCC(CO)N1CCC(CCn2cc3c(n2)CCc2c-3sc3ncnc(Nc4ccc(OCc5cccc(F)c5)c(Cl)c4)c23)CC1 [Example 249, 2-(4-{2-[6-({3-chloro-4-[(3-fluorobenzyl)oxy]phenyl}amino)-4,5-dihydro-2H-pyrimido[5′,4′:4,5]thieno[2,3-e]indazol-2-yl]ethyl}piperidin-1-yl)propane-1,3-diol]
≤ 5 | ≤ 50 | Cc1cccc(COc2ccc(Nc3ncnc4sc5c(c34)CCc3nn(CCOS(C)(=O)=O)cc3-5)cc2Cl)n1 [Example 116, 2-[6-({3-chloro-4-[(6-methylpyridin-2-yl)methoxy]phenyl}amino)-4,5-dihydro-2H-pyrimido[5′,4′:4,5]thieno[2,3-e]indazol-2-yl]ethyl methanesulfonate]
≤ 1 | ≤ 50 | Clc1cc(Nc2ncnc3sc4c(c23)CCc2nn(CCn3ccnc3)cc2-4)ccc1OCc1ccccn1 [Example 104, N-[3-chloro-4-(pyridin-2-ylmethoxy)phenyl]-2-[2-(1H-imidazol-1-yl)ethyl]-4,5-dihydro-2H-pyrimido[5′,4′:4,5]thieno[2,3-e]indazol-6-amine]
≤ 1 | ≤ 5 | OCCn1cc2c(n1)CCc1c-2sc2ncnc(Nc3ccc(OCc4cccc(F)c4)c(Cl)c3)c12 [Example 56, 2-[6-({3-chloro-4-[(3-fluorobenzyl)oxy]phenyl}amino)-4,5-dihydro-2H-pyrimido[5′,4′:4,5]thieno[2,3-e]indazol-2-yl]ethanol]
≤ 5 | ≤ 5 | COc1cccc(COc2ccc(Nc3ncnc4sc5c(c34)CCc3nn(CCN4CCN(C)CC4)cc3-5)cc2Cl)c1 [Example 324, N-{3-chloro-4-[(3-methoxybenzyl)oxy]phenyl}-2-[2-(4-methylpiperazin-1-yl)ethyl]-4,5-dihydro-2H-pyrimido[5′,4′:4,5]thieno[2,3-e]indazol-6-amine]
≤ 1 | ≤ 50 | O=C(Cn1cc2c(n1)CCc1c-2sc2ncnc(Nc3ccc(OCc4cccc(F)c4)c(Cl)c3)c12)NCCO [Example 178, 2-[6-({3-chloro-4-[(3-fluorobenzyl)oxy]phenyl}amino)-4,5-dihydro-2H-pyrimido[5′,4′:4,5]thieno[2,3-e]indazol-2-yl]-N-(2-hydroxyethyl)acetamide]
≤ 1 | ≤ 5 | COCCN(C)CCn1cc2c(n1)CCc1c-2sc2ncnc(Nc3ccc(OCc4cccc(F)c4)c(Cl)c3)c12 [Example 69, N-{3-chloro-4-[(3-fluorobenzyl)oxy]phenyl}-2-{2-[(2-methoxyethyl)(methyl)amino]ethyl}-4,5-dihydro-2H-pyrimido[5′,4′:4,5]thieno[2,3-e]indazol-6-amine]
